Columns and labels:
[1] = Water adsorption isotherm (water adsorption level, BELSORP-18 analyzer); type: physicochemical; details: constant temperature of 25° C.; crystal dried overnight in vacuum at 60° C.; results in FIGS. 3 and 4; hydrochloride
Description: Preparation of Water Adsorption Isotherm (Water Adsorption Constant Temperature Line):
After the Type IV crystal recovered above was dried overnight in vacuum at 60° C., the water adsorption level of the crystal was measured at a constant temperature of 25° C. by a fully automatic water adsorption analyzer (BELSORP-18: Nippon Bell K.K.) (see Mitsuiki et al., J. Agric. Food Chem., vol.46, No. 9, pages 3528-3534 (1998)).
The water adsorption level of the Type I crystal was also measured in the same manner as above.

[2] = X ray powder diffraction pattern of the crystal under humidity (crystal structure stability); type: physicochemical; details: relative humidity of 80% or less

SMILES	water (water vapor) adsorption level versus relative humidity [1]	change of X ray powder diffraction pattern / crystal structure [2]
COc1ccc(/C=C\c2cc(OC)c(OC)c(OC)c2)cc1NC(=O)[C@@H](N)CO.Cl [Type I crystal, (Z)-N-[2-methoxy-5-[2-(3,4,5-trimethoxyphenyl)vinyl]phenyl]-L-serinamide hydrochloride, reference compound]	adsorbed water in a degree roughly proportional to relative humidity	
COc1ccc(/C=C\c2cc(OC)c(OC)c(OC)c2)cc1NC(=O)[C@@H](N)CO.Cl [Type IV crystal, (Z)-N-[2-methoxy-5-[2-(3,4,5-trimethoxyphenyl)vinyl]phenyl]-L-serinamide hydrochloride]	adsorbed much less water up to around a relative humidity of 80%	did not change

Reference: patent US20030065035A1, “Novel stilbene derivative crystal and method for producing the same” (AJINOMOTO CO. INC, priority 2000, published 2003)
